Results reported in patent publication US20240209010A1, “PRODRUGS OF AZO COMPOUNDS AND THEIR SALTS” (KASHIV BIOSCIENCES, LLC, priority 2021, published 2024).

Legend:
[1] = Pharmacokinetic data in rat after single oral administration; format: in vivo; conditions: analyte = the administered compound itself, single oral dose (No. 12 31.2, No. 43 32.8, No. 446 34.8, No. 449 25, XIII 21.2, No. 54 27 mg/kg), fasted female Sprague Dawley rat
Procedure: The objective of the study was to evaluate pharmacokinetic exposure of Compound XI along with Compound No. 12/Compound No. 43/Compound No. 446/Compound No. 449/Compound XIII/Compound No. 54 after per oral dosing at 31.2 mg/kg of Compound No. 12, 32.8 mg/kg of Compound No. 43, 34.8 mg/kg of Compound No. 446, 25 mg/kg of Compound No. 449, 21.2 mg/kg of Compound XIII and 27 mg/kg of Compound No. 54 in female Sprague Dawley rat. This study was performed in overnight fasted female Sprague Dawley rat. Dose formulation was prepared freshly on the day of dosing. 0.1% tween-80+99.9% of 0.5% CMC was used as vehicle for the preparation of dose formulation.
Blood samples were collected through retro orbital plexus puncture at pre-dose, 0.25, 0.5, 1, 2, 4, 8, 12 and 24 h post-dose. At each time point, blood was withdrawn and transferred into a pre-labeled of micro centrifuge tubes containing anti-coagulant. Tube was mixed gently by inverting the tube to facilitate mixing of anticoagulant with the blood. All blood/plasma samples were analysed using fit-for purpose LC-MS/MS method.
The pharmacokinetic parameters were calculated using standard non-compartmental analysis (Phoenix® software, version 8.3, Pharsight Corporation, Mountain View, California 94040/USA) using linear trapezoidal method with linear interpolation.

P2RX3 gene = experiment: Gene expression analysis (qRT-PCR) of P2RX3 in cyclophosphamide-treated RT4 cells; format: cell-based, Human; conditions: 100 μM CYP + 10 μM compound, 4 h incubation, compared to CYP control
Procedure: Study Design: With objective of evaluating effect of text compounds on the pain related markers we have utilized human urothelial “RT4 (Human Urinary bladder carcinoma cells)” cells, treated with test compounds in combination with cyclophosphamide (CYP) and performed gene expression analysis of pain related gene. For gene expression study, 0.5×10^6 cells were treated with cyclophosphamide and test compounds. Cells were incubated for 4 h at 37° C. Experimental Groups: Groups 1: Untreated cells, Group 2: CYP treated (100 μM CYP), Group 3: CYP+Compound IX (100 μM CYP+10 μM Compound IX).
At the end of 4 hr incubation, medium was removed from all wells and cells were washed once with sterile PBS. RNA isolation was performed as per the manufacturer's instruction utilizing Qiagen RNA mini kit (Cat #74104). Followed by cDNA synthesis using 3 μg of total RNA each sample utilizing Superscript III First strand cDNA synthesis system (Thermo fisher, Cat No 18080051). qRT-PCR was performed using the SYBR green master mix (PCR Biosystems, Cat No:—PB20.14) and primers specific for P2RX3 gene. Upon the completion of PCR, the data was analysed using the CFX manager software. The Fold change of the expression was calculated using the following formula: 2^−ddCT=2^−((CT target −CT internal control)

SMILES	AUC% Extrap—obs [1] [%]	AUC(0-t) ([1]; in vivo) [ng·h/mL]	Tmax ([1]; in vivo) [min]	Cmax ([1]; in vivo, arithmetic mean) [ng/mL]	AUC(0-inf) ([1]; in vivo, read-out: AUCinf—obs) [ng·h/mL]	P2RX3 gene expression (fold change) (P2RX3 gene)
NCC(=O)Nc1ccc(/N=N/c2ccccc2OC(=O)N2CCOCC2)c(N)n1 [Compound No. 446]	11.73	151	15	145	170	–
Nc1nc(N)c(/N=N/c2ccccc2)cc1O [Compound IX]	–	–	–	–	–	reduction in P2RX3 gene expression
